{"source": "patent US5843449A", "about": "“Proteins and novel peptides derived from autoantigen for use in immunotherapy of autoimmune diseases” (Akzo Nobel N.V., priority 1996, dated 1998)", "key": {"[1]": {"biological_target": "T1, DR4Dw4 (DRB1*0401) HLA-DR molecules (Homo sapiens, UniProt P01903+P01911, A100K/A169T/F76Y/I96L/K127E/L162R/M171V/N62H/P40V/Q125Y/R42H/S133A/S149N/S66Y/V115G/V209L/W38E)", "T1 construct": "endogenous in cells; host or cells: BSM, EBV-transformed B-cell line", "assay": "HLA-DR peptide binding assay (competition with biotinylated marker peptide), DR4Dw4", "conditions": "pH = 5, 50 nM biotin-spacer-IHA(307-319)F marker peptide"}, "DR4Dw14 HLA-DR molecules": {"biological_target": "DR4Dw14 HLA-DR molecules", "assay": "HLA-DR peptide binding assay (competition with biotinylated marker peptide), DR4Dw14", "design": "species or system human", "conditions": "pH = 5, 50 nM biotin-spacer-IHA(307-319)F marker peptide"}}, "note": "pIC50: −log10 of the molar value. Read-outs that look alike come from different tables or passages of the source. Residues, ends and D or L forms follow the SMILES beside them."}
{"compound": "CC(C)C[C@H](NC(=O)[C@H](CCCCN)NC(=O)[C@H](CC(C)C)NC(=O)[C@@H](NC(=O)[C@H](CC(N)=O)NC(=O)[C@H](CCC(N)=O)NC(=O)[C@H](CCCCN)NC(=O)[C@@H](NC(=O)[C@H](Cc1ccccc1)NC(=O)[C@H](CCCCN)NC(=O)[C@@H]1CCCN1)C(C)C)[C@@H](C)O)C(=O)N[C@@H](C)C(=O)N[C@H](C(=O)O)[C@@H](C)O", "note": "[IHA(307-319)F, reference compound] (H-PKFVKQNTLKLAT-OH)", "values": [{"measurement": "pIC50", "setting": "[1]; DOT Blot, densitometer, read-out: ^R IC50, DR4Dw4, DOT Blot", "result": 6.26}, {"measurement": "pIC50", "setting": "[1]; SDS-PAGE, visual inspection, read-out: ^R IC50, DR4Dw4, SDS-PAGE", "result": 6.52}, {"measurement": "pIC50", "setting": "DR4Dw14 HLA-DR molecules; DOT Blot, densitometer, read-out: ^R IC50, DR4Dw14, DOT Blot", "result": 6.28}, {"measurement": "pIC50", "setting": "DR4Dw14 HLA-DR molecules; SDS-PAGE, visual inspection, read-out: ^R IC50, DR4Dw14, SDS-PAGE", "result": 6.52}]}
